# Measured values reported in US20150159222A1, “MARKERS ASSOCIATED WITH HUMAN DOUBLE MINUTE 2 INHIBITORS” (NOVARTIS AG, priority 2012, published 2015).
# Experiments:
# [1] = test system: p53 wild-type (SJSA-1 and HCT116 p53wt/wt cells) and p53 mutant cell lines (SAOS2 and HCT116 p53-/- cells); experiment: Cell proliferation inhibition assay (YOPRO); assay type: cell-based; conditions: 72 hours; p53 wild-type vs p53 mutant cell lines
# Procedure: Lucern, Switzerland). Briefly, cells are plated in 96-well plates overnight at 37° C. and are treated with increasing concentrations of MDM2i(1) or MDM2i(2) for 72 hours. Cell concentration in each well is then determined using the DNA-interacting fluorescent dye YOPRO according to the manufacturer's instructions and the fluorescent signal is measured using a Gemini-EM standard plate reader (Molecular Devices: Sunnyvale, Calif., USA).
# [2] = test system: C3A cells; experiment: Western blot of p53 pathway proteins in C3A cells; assay type: cell-based; conditions: 4 hours
# Procedure: (§1) That the biomarkers in Table 2/FIG. 3 are reflective of a functional p53 pathway in MDM2i sensitive cells is verified in FIG. 4. […]. Whole cell lysates were prepared using a cell lysis buffer containing 50 mM Tris-HCl pH 7.5, 120 mM NaCl, 1 mM EDTA, 6 mM EGTA pH 8.5, 1% NP-40, 20 mM NaF, 1 mM PMSF and 0.5 mM Na-Vanadat, proteins were separated on NuPAGE 4-12% Bis-Tris Gel (Invitrogen # NP0322BOX, Lucerne; Switzerland), transferred onto Nitrocellulose Protran® BA 85 membranes (Whatman #10 401 261: Piscataway, N.J., USA) at 1.5 mA/cm^2 membrane for 2 h using a semi-dry blotting system, and immunoblotted with either an anti-phospho-p53 (Ser^15) (1/1000; Cell Signaling Technology #9284: Beverly, Mass., USA) rabbit polyclonal antibody, or an anti-p53 (Ab-6) (Pantropic, clone DO-1,) (1/1000; Calbiochem # OP43 San Diego, Calif., USA), an anti-MDM2 (Ab-1, clone IF2) (1/1000; Calbiochem # OP46), an anti-p21^WAF1(Ab-1, clone EA10) (1/500; Calbiochem # OP64: San Diego, Calif., USA) or an anti-a-Tubulin (Sigma # T5168: St. Louis, Mo., USA) mouse monoclonal antibodies, as indicated. […].
# [3] = test system: COLO 792 cells; experiment: Western blot of p53 pathway proteins in COLO 792 cells; assay type: cell-based; conditions: 4 hours
# Procedure: as §1
# [4] = test system: SJSA-1 osteosarcoma cells; experiment: SJSA-1 xenograft tumor growth; assay type: in vivo, Harlan nude mice; conditions: for T/C: 10-day treatment
# Procedure: To further validate the predictive biomarkers disclosed in FIG. 3, in vivo human xenograft models either from human primary samples or from cell lines were directly injected and grown in tumors subcutaneously in mice and then assessed for MDM2i sensitivity. All the animals were allowed to adapt for 4 days and housed in a pathogen-controlled environment (5 mice/Type III cage) with access to food and water ad libitum. Animals were identified with transponders. Studies were performed according to procedures covered by permit number 1975 issued by the Kantonales Veterinaramt Basel-Stadt and strictly adhered to the Eidgenössisches Tierschutzgesetz and the Eidgenössische Tierschutzverordnung. Subcutaneous tumors were induced by concentrating 3.0×10^6 SJSA-1 osteosarcoma cells in 100 μl of PBS (without Ca^2+ and Mg^2+) and injecting in the right flank of Harlan nude mice. The administration of MDM2i began 12-14 days post cell injection. MDM2i was prepared immediately before each administration. MDM2i compounds were dissolved in 0.5% HPMC (hydroxypropylmethylcellulose) and were injected daily (q24h) at 25, 50 or 100 mg/kg. Tumor volumes (TVol), determined from caliper measurements (using the formula l×w×h×π/6) were measured three times per week. Tumor response was quantified by the change in tumor volume (endpoint minus starting value in mm^3) as the T/C, i.e.
# In the case of a tumor regression, the tumor response was quantified by the percentage of regression of the starting TVoI, i.e.
# The body-weight (BW) of the mice was measured three times per week allowing calculation at any particular time-point relative to the day of initiation of treatment (day 0) of both the percentage change in BW (Δ % BW). […].
# [5] = test system: p21(CDKN1A); experiment: p21(CDKN1A) mRNA in SJSA-1 xenograft tumors (qRT-PCR); assay type: in vivo, Harlan nude mice
# Procedure: Briefly, total RNA was purified from cell pellets using the QIAshredder® (79654, Qiagen:Valencia Calif., USA) and RNeasy Mini Kit® (74106, Qiagen: Valencia Calif., USA) according to the manufacturer's instructions, with the exception that no DNA digestion was performed. Total RNA was eluted with 50 μL of RNase-free water. Total RNA was quantitated using the spectrophotometer ND-1000 Nanodrop® (Wilmington Del., USA). The qRT-PCR (Quantitative Reverse Transcriptase Polymerase Chain Reaction) was set up in triplicate per sample using the One-Step RT qPCR Master Mix Plus (RT-QPRT-032X, Eurogentec: Seraing, Belgium), with either control primers and primers for human p21(CDKN1A) (Hs00355782_m1, Applied Biosystems: Carlsbad Calif., USA) or mouse p21(CDKN1A) (Mm00432448_m1, Applied Biosystems: Carlsbad Calif., USA), namely TaqMan Gene Expression kit assays (20× probe dye FAM™ (or VIC)-TAMRA (or MGB); Applied Biosystems: Carlsbad Calif., USA). […] The number of cycles (CT) was determined, 2^−CT values were calculated, and the value normalized by dividing with the 2^−CT value obtained from the GAPDH control. Fold increase over control (i.e. DMSO- or vehicle-treated animals) was calculated and plotted in the bar graph.
# [6] = test system: p21(CDKN1A); experiment: p21(CDKN1A) protein in SJSA-1 xenograft tumors (immunohistochemistry); assay type: in vivo, Harlan nude mice
# Procedure: SJSA-1 xenograft tumors were collected and a 3-4 mm slice out of the middle of the tumor was removed, transferred into pre-labelled histo-cassettes and immersion-fixed in neutral buffered formalin (NBF) 10% (v/v) (pH 6.8-7.2) (J. T. Baker, Winter Garden, Fla., USA), pre-cooled at 4° C. Tumors were then fixed at room temperature for 24 hours, followed by processing in the TPC 15Duo (Tissue Processing Center, Medite) for paraffinization. Subsequently, the tumor slices were embedded in paraffin and from each paraffin block several 3 μm thick sections were cut on a rotary microtome (Mikrom International AG, Switzerland), spread in a 48° C. water-bath, mounted on glass slides (SuperFrost Plus, Thermo Scientific:Waltham Mass., USA), and dried in an oven either at 37° C. overnight or at 60° C. for 30 min. Dry tissue section were processed for immunohistochemistry (IHC) staining. p21(CDKN1A) immunohistochemistry has been performed using the mouse monoclonal antibody clone SX118 from Dako (Cat. No. M7202 Dako: Carpenteria Calif., USA) at a dilution of 1:50. Immunohistochemistry has been performed on a Ventana Discovery XT automated immunostainer using the N-Histofine Mousestain Kit (Nichirei Bioscience Inc, Japan) in combination with the DABMap Kit chromogen system, omitting the SA-HRP solution (Ventana/Roche Diagnostics GmbH, Mannheim, Germany). […]
# [7] = test system: CCLE cell lines; experiment: Chemical sensitivity of the CCLE cell line panel; assay type: cell-based
# Procedure: […]. The cell line panel is the one covered by the Cancer Cell Line Encyclopedia (CCLE) initiative (Barretina J., Caponigro G., Stransky N., Venkatesan K., et al. The Cancer Cell Line Encyclopedia enables predictive modeling of anticancer drug sensitivity. Nature 483:603-7, 2012). A detailed genomic, genetic and pharmacologic characterization was conducted on the CCLE cell lines.
# p53 mutation status in CCLE cell lines is taken from a data source of gene-level genetic alterations, for example, point-mutations, insertions, deletions and complex genetic alterations, compiled from the Sanger center COSMIC data and internal sources including Exome Capture Sequencing. This comprises data from approximately 1,600 cancer-related genes over the CCLE cell lines.
# […]. […] From such in vitro chemical sensitivity data, the prediction that a cell would be sensitive to an MDM2i treatment was estimated to be 13%. […].
# [8] = test system: SJSA-1 osteosarcoma line; conditions: SJSA-1, amplified copies of the MDM2 gene; cited from earlier work
# [9] = test system: SJSA-1 cell line; conditions: SJSA-1 xenografts in mouse; cited from earlier work
# [10] = test system: human normal fibroblasts; conditions: cited from earlier work
# [11] = test system: mouse normal fibroblasts; conditions: cited from earlier work
# [12] = C3A cells, increasing concentrations
# [13] = COLO 792 cells, increasing concentrations
compound,measurement,setting,value
COc1cc2c(cc1OC(C)C)[C@H](c1ccc(Cl)cc1)N(c1ccc(N(C)C[C@H]3CC[C@H](N4CCN(C)C(=O)C4)CC3)cc1)C(=O)C2 [MDM2i(1)],tumor cell proliferation,[1],hampering tumor cell proliferation in a p53-dependent manner
same,p53 protein levels,[2]; [12],induces stabilization of p53 protein levels
same,phospho-p53,[2]; [12],no significant increase of phospho-p53
same,expression of p53 target genes p21(CDKN1A) and MDM2,[2]; C3A sensitive cells,induces a strong de novo expression of both p53 target genes p21(CDKN1A) and MDM2
same,p53 protein levels,[3]; [13],induces stabilization of p53 protein levels
same,phospho-p53,[3]; [13],no significant increase of phospho-p53
same,expression of p53 target genes p21(CDKN1A) and MDM2,[3]; COLO-792 insensitive cell line,not in COLO-792 insensitive cell line
same,T/C,[4]; 25 mg/kg q24h,50%
same,T/C,[4]; 50 mg/kg q24h,3%
same,tumor regression,[4]; 100 mg/kg q24h for 10 days,65%
same,p21(CDKN1A) mRNA levels in tumors,[5],significant dose-dependent induction of p21(CDKN1A) mRNA levels in tumors
same,p21(CDKN1A) protein levels in tumors,[6],significant dose-dependent induction of p21(CDKN1A) protein levels in tumors
COc1cc2c(cc1OC(C)C)[C@H](c1ccc(Cl)cc1)N(c1ccc(N(C)C[C@H]3CC[C@H](N4CCNC(=O)C4)CC3)cc1)C(=O)C2 [MDM2i(2)],tumor cell proliferation,[1],hampering tumor cell proliferation in a p53-dependent manner
same,number of insensitive cell lines,[7]; CCLE panel,309
same,number of sensitive cell lines,[7]; CCLE panel,47
same,sensitivity of p53 mutated cell lines,[7]; p53 mutated CCLE cell lines,majority of p53 mutated cell lines are found insensitive
same,sensitivity of p53 wild type cell lines,[7]; p53 wild type CCLE cell lines,more than two-third of p53 wild type cell lines are sensitive
COc1ccc(C2=N[C@@H](c3ccc(Cl)cc3)[C@@H](c3ccc(Cl)cc3)N2C(=O)N2CCNC(=O)C2)c(OC(C)C)c1 [Nutlin-3],proliferation and apoptosis,[8],reduced proliferation and increased apoptosis
same,reduction of xenograft growth,[9],90%
same,proliferation and viability of non-cancerous cells,[10],"the proliferation of the cells was slowed, they retained their viability"
same,proliferation and viability of non-cancerous cells,[11],"the proliferation of the cells was slowed, they retained their viability"
